Molecular target: T1, human oxytocin receptor (Homo sapiens, UniProt P30559)
T1 construct: host or cells: CHO cells (pcDNA3.1 vector)
T1 sequence (P30559 1-389): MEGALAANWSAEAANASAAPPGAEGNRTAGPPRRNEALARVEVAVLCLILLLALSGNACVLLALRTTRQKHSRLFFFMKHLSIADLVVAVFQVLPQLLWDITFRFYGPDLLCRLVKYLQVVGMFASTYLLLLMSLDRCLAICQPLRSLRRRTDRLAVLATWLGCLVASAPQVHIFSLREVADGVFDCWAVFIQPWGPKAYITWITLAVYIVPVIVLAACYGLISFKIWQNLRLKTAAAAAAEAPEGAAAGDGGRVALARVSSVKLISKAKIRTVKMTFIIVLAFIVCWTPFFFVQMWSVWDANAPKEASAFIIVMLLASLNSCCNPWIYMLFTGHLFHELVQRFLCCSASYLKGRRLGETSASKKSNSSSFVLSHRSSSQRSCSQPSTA
Test: Oxytocin binding in Chinese Hamster Ovary cell membranes expressing human oxytocin receptors
Settings: CHO cell membranes, [3H]oxytocin; for inhibition at 0.1 µM: 100 nM, values without parentheses, read-out: OT % inhibition @ 100% nM; for IC50: values in parentheses, read-out: OT (IC50)

Row | inhibition at 0.1 µM [%] | IC50 [nM] | SMILES
1 | 98 |  | COc1ccccc1-c1ccc(C(=O)N2Cc3ccc(C(=O)N(C)CCCN(C)C)n3Cc3ccccc32)cc1C [Example 100, N-[3-(Dimethylamino)propyl]-10-[(2′-methoxy-2-methyl[1,1′-biphenyl]-4-yl)carbonyl]-N-methyl-10,11-dihydro-5H-pyrrolo[2,1-c][1,4]benzodiazepine-3-carboxamide]
2 | 50 |  | COc1cccc(-c2ccc(C(=O)N3Cc4ccc(C(=O)NCCCN(C)C)n4Cc4ccccc43)cc2OC)c1 [Example 82, 10-[(2,3′-Dimethoxy[1,1′-biphenyl]-4-yl)carbonyl]-N-[3-(dimethylamino)propyl]-10,11-dihydro-5H-pyrrolo[2,1-c][1,4]benzodiazepine-3-carboxamide]
3 | 100 |  | Cc1ccccc1-c1ccc(C(=O)N2Cc3ccc(C(=O)N(C)CCCN(C)C)n3Cc3ccccc32)cc1C [Example 101, N-[3-(Dimethylamino)propyl]-10-[(2,2′-dimethyl[1,1′-biphenyl]-4-yl)carbonyl]-N-methyl-10,11-dihydro-5H-pyrrolo[2,1-c][1,4]benzodiazepine-3-carboxamide]
4 |  | 7.87 | COc1cccc(-c2ccc(C(=O)N3Cc4ccc(C(=O)N5CC[C@@H](N(C)C)C5)n4Cc4ccccc43)cc2C)c1 [Example 278, [(3R)-3-(Dimethylamino)pyrrolidinyl]{10-[(3′-methoxy-2-methyl[1,1′-biphenyl]-4-yl)carbonyl]-10,11-dihydro-5H-pyrrolo[2,1-c][1,4]benzodiazepin-3-yl}methanone]
5 |  | 6.29 | Cc1cc(C(=O)N2Cc3ccc(C(=O)N4CC[C@@H](N(C)C)C4)n3Cc3ccccc32)ccc1-c1ccccc1C(F)(F)F [Example 271, [(3R)-3-(Dimethylamino)pyrrolidinyl](10-{[2-methyl-2′-(trifluoromethyl)[1,1′-biphenyl]-4-yl]carbonyl}-10,11-dihydro-5H-pyrrolo[2,1-c][1,4]benzodiazepin-3-yl)methanone]
6 |  | 4.63 | COc1cccc(-c2cc(OC)c(C(=O)N3Cc4ccc(C(=O)N(C)CCN(C)C)n4Cc4ccccc43)cc2Cl)c1 [Example 87, 10-[(6-Chloro-3,3′-dimethoxy[1,1′-biphenyl]-4-yl)carbonyl]-N-[2-(dimethylamino)ethyl]-N-methyl-10,11-dihydro-5H-pyrrolo[2,1-c][1,4]benzodiazepine-3-carboxamide]
7 | 95 |  | COc1cccc(-c2ccc(C(=O)N3Cc4ccc(C(=O)N(C)CCCN(C)C)n4Cc4ccccc43)cc2C)c1 [Example 102, N-[3-(Dimethylamino)propyl]-10-[(3′-methoxy-2-methyl[1,1′-biphenyl]-4-yl)carbonyl]-N-methyl-10,11-dihydro-5H-pyrrolo[2,1-c][1,4]benzodiazepine-3-carboxamide]
8 | 100 |  | COc1ccccc1-c1ccc(C(=O)N2Cc3ccc(C(=O)N(C)CCN(C)C)n3Cc3ccccc32)cc1 [Example 90, N-[2-(Dimethylamino)ethyl]-10-[(2′-methoxy[1,1′-biphenyl]-4-yl)carbonyl]-N-methyl-10,11-dihydro-5H-pyrrolo[2,1-c][1,4]benzodiazepine-3-carboxamide]
9 | 97 |  | COc1cc(C(=O)N2Cc3ccc(C(=O)N(C)CCCN(C)C)n3Cc3ccccc32)ccc1-c1ccccc1C [Example 105, N-[3-(Dimethylamino)propyl]-10-[(2-methoxy-2′-methyl[1,1′-biphenyl]-4-yl)carbonyl]-N-methyl-10,11-dihydro-5H-pyrrolo[2,1-c][1,4]benzodiazepine-3-carboxamide]
10 |  | 8.89 | Cc1cc(C(=O)N2Cc3ccc(C(=O)N4CCN(CCCN(C)C)CC4)n3Cc3ccccc32)ccc1-c1ccccc1C(F)(F)F [Example 4, [4-(3-Dimethylaminopropyl)-piperazin-1-yl]-[10-(2-methyl-2′-trifluoromethyl-[1,1′-biphenyl]-4-yl)carbonyl]-[10,11-dihydro-5H-pyrrolo[2,1-c][1,4]benzodiazepin-3-yl]-methanone]
11 |  | 1.81 | COc1cc(C(=O)N2Cc3ccc(C(=O)N4CCC[C@H]4CN4CCCC4)n3Cc3ccccc32)ccc1-c1ccccc1C(F)(F)F [Example 20, {[10-(2-Methoxy)-2′-trifluoromethyl-[1,1′-biphenyl]-4-yl]carbonyl}-[(2S)-[(2-pyrrolidin-1-yl)methyl]pyrrolidin-1-yl]-10,11-dihydro-5H-pyrrolo[2,1-c][1,4]benzodiazepin-3-yl-methanone]
12 | 35 |  | COc1cccc(-c2cc(OC)c(C(=O)N3Cc4ccc(C(=O)NCCCN(C)C)n4Cc4ccccc43)cc2Cl)c1 [Example 79, 10-[(6-Chloro-3,3′-dimethoxy[1,1′-biphenyl]-4-yl)carbonyl]-N-[3-(dimethylamino)propyl]-10,11-dihydro-5H-pyrrolo[2,1-c][1,4]benzodiazepine-3-carboxamide]
13 |  | 3.44 | COc1cc(-c2ccccc2C)ccc1C(=O)N1Cc2ccc(C(=O)N(C)CCCN(C)C)n2Cc2ccccc21 [Example 11, N-Methyl-N-[3-(dimethylamino)propyl]-10-[(3-methoxy-2′-methyl[1,1′-biphenyl]-4-yl)carbonyl]-10,11-dihydro-5H-pyrrolo[2,1-c][1,4]benzodiazepine-3-carboxamide]
14 |  | 6.7 | COc1ccccc1-c1ccc(C(=O)N2Cc3ccc(C(=O)N4CCC(N5CCCCC5)CC4)n3Cc3ccccc32)cc1 [Example 111, {10-[(2′-Methoxy[1,1′-biphenyl]-4-yl)carbonyl]-10,11-dihydro-5H-pyrrolo[2,1-c][1,4]benzodiazepin-3-yl}[4-(1-piperidinyl)-1-piperidinyl]methanone]
15 |  | 3.66 | COc1ccccc1-c1ccc(C(=O)N2Cc3ccc(C(=O)N4CCN(CCN5CCOCC5)CC4)n3Cc3ccccc32)cc1C [Example 206, {10-[(2′-Methoxy-2-methyl[1,1′-biphenyl]-4-yl)carbonyl]-10,11-dihydro-5H-pyrrolo[2,1-c][1,4]benzodiazepin-3-yl}{4-[2-(4-morpholinyl)ethyl]-1-piperazinyl}methanone]
16 |  | 11.1 | C=CCN1CCN(C(=O)c2ccc3n2Cc2ccccc2N(C(=O)c2ccc(-c4ccccc4OC)cc2)C3)CC1 [Example 221, (4-Allyl-1-piperazinyl){10-[(2′-methoxy[1,1′-biphenyl]4-yl)carbonyl]-10,11-dihydro-5H -pyrrolo[2,1-c][1,4]benzodiazepin-3-yl}methanone]
